From patent US20130330422A1, “METHODS FOR INCREASING INSULIN SENSITIVITY AND TREATING DIABETES WITH A BIOACTIVE CHROMIUM BINDING PEPTIDE” (The Board of Trustees of the University of Alabama, priority 2012, published 2013)
Non-standard residues stand in square brackets, D forms with d. No end group written: not given here. pGlu = O=C1CC[C@@H](C(=O)O)N1

What was measured:
[1] = Chromium binding studies: ultrafiltration equilibrium dialysis with 51CrCl3, Langmuir isotherms and Hill plots; settings: for Langmuir parameter Bt / Langmuir parameter K: Cr^3+ binding, 0.1 mol/L Hepes pH 7.4, 4° C.; for Co-operativity / Kf (Hill plot binding of formation constant) / n (Hill constant): chromium(III) binding, Hill plot; for chromium:oligopeptide ratio at the intersection point of the Langmuir isotherm (number of tightly binding ions): estimated from Langmuir isotherm
Method: A variation of the equilibrium dialysis method using an ultrafiltration device was utilized to examine the binding of chromium to the synthetic peptides. Aliquots of a mixture of CrCl3 and ^51CrCl3 were combined to generate different concentrations of Cr(III) while maintaining the synthetic peptide in solution at a constant volume. Known amounts (approximately 0.46 μmol) of peptide and 200 mL of 0.1 mol/L Hepes buffer (pH 7.4) were slowly stirred in an Amicon 8400 ultrafiltration unit (with a YC05 membrane) at 4° C. temperature for at least 12 h to achieve equilibration. The ultrafiltration unit was then pressurized, and effluent was collected. The content of free chromic ion in the effluent was determined by gamma counting using a Packard Cobra II auto-gamma counter. Chromium binding experiments were performed in triplicate, and the synthetic peptide used in at least one of the three sets of triplicates was from a different synthesis. As a control for the chromium-binding experiments, the ultrafiltration procedure was performed without peptide to establish the amount of chromium that adhered to the ultrafiltration unit; all experiments were corrected for this background. Linear regression analyses of the Langmuir isotherms and Hill plots were performed using SigmaPlot 11.0. The Cr concentration of solutions of isolated peptides were determined by graphite furnace atomic absorption spectroscopy using a PerkinElmer Analyst 400 atomic absorption spectrometer equipped with an HGA-900 graphite furnace and an AS-800 autosampler using a chromium hollow cathode lamp operating at 10 mA; a spectral bandwidth of 0.8 nm was selected to isolate the light at 353.7 nm. Chromium standard solution obtained from Perkin Elmer (Waltham, Mass.) was utilized to generate a standard curve.
Errors are presented throughout as standard deviations of the triplicate analyses. Doubly deionized H2O was used throughout. Amino acid analyses of samples were performed by the Protein and Separation Analysis Laboratory at Purdue University. Protein concentrations were determined by the fluorescamine method (Davis et al. “Isolation and characterization of a biologically active form of chromium oligopeptide from bovine liver,” Arch Biochem Biophys. 1997; 339:335-343.) Fluorescence measurements were obtained on a Jobin Yvon FluoroMax-3 fluorescence spectrophotometer. Ultraviolet-visible spectra were obtained using a Hewlett-Packard 8451A or a Beckman Coulter DU 800 spectrophotometer.
As chromium binding to the oligopeptide LMWCr is believed to be through only carboxylate residues and the heptapeptide pEEEEGDD (SEQ ID NO: 1) retains all the aspartate and glutamate residues in LMWCr, whether the heptapeptide can bind chromium in a similar fashion to LMWCr was investigated. The binding of chromium to bovine apoLMWCr prepared by the low pH EDTA method (Davis and Vincent), the heptapeptide pEEEEGDD (SEQ ID NO: 1), and two other acidic peptides was probed. […] The number of Cr^3+ ions binding to the peptides was estimated using Langmuir isotherms. For the Langmuir isotherms of Cr^3+ binding to all the synthetic peptides, Cr binding to apoLMWCr can be represented by two intersecting straight lines with different slopes (FIG. 5)). […] Negative values of the Langmuir parameters Bt and K were found for each peptide: apoLMWCr, −2.69 mmol/g and −109 L/mmol, respectively; EDGEECDCGE (SEQ ID NO: 41), −6.97 mmol/g and −354 L/mmol; DGEECDCGEE (SEQ ID NO: 42), −62.9 mmol/g and −9.94 L/mmol; and pEEEEGDD (SEQ ID NO: 1), −0.73 mmol/g and −151 L/mmol.
To further compare the binding properties between the synthetic peptides and apoLMWCr in CrCl3 solution, the method of Hill was applied to establish the degree of cooperativity between the covalent binding sites with the initial low amounts of substrate in solution, assuming covalent binding sites are occupied before surface adsorption occurs. The total number of tight binding sites established using the Langmuir isotherm was utilized. […]

[2] = Cr:peptide binding ratio after exposure to 10 equivalents of Cr^3+ and G-10 size exclusion chromatography; settings: 0.1 mol/L hepes pH 7.4, overnight at 4° C., G-10 separation
From the text: The intersection points in the isotherms allow the number of tightly binding ions to be estimated. For bovine apoLMWCr, the chromium:oligopeptide ratio at the intersection point is 3.6, which is very close to the average amount of chromium bound to isolated bovine LMWCr, which is 3.5. Titration of bovine LMWCr with Cr^3+ has previously shown that four Cr^3+ ions are required to restore bioactivity. For the synthetic peptides, the intersection points occurred at Cr:peptide ratios of approximately 2, 2, and 4 for EDGEECDCGE (SEQ ID NO: 41), DGEECDCGEE (SEQ ID NO: 42) and pEEEEGDD (SEQ ID NO: 1) (FIG. 6), respectively. This is consistent with the Crpeptides binding ratios found after exposing the peptides to solutions of 10 equivalents of Cr^3+ (CrCl3.6H2O in 0.1 mol/L hepes buffer, pH 7.4 overnight at 4° C.) and separating the peptides from the excess Cr^3+ by G-10 size exclusion chromatography (EDGEECDCGE (SEQ ID NO: 41): 2.0(±0.3), and DGEECDCGEE (SEQ ID NO: 42): 2.0±0.3). A change in mode from specific coordinate covalent binding to just electrostatic absorption on the peptide surface is proposed. Thus, the inflection point of the isotherm for the peptide pEEEEGDD (SEQ ID NO: 1) implies that it tightly binds four Cr^3+ ions. […] The two visible features are readily assigned to d→d transitions from the Cr^3+ centers. […]

Akt = experiment: Insulin-stimulated phosphorylation of Akt in cultured myotubes (Western blot); assay type: cell-based; settings: peptide and/or chromium (1 μM) 1 h, insulin 5 nm
Method: Myotubes were incubated with the peptide and/or chromium (1 μM) for 1 h and stimulated with insulin 5 nm. (A) Representative Western blots of p^308-Akt and Akt, and (B) Densitometric quantitation of the Western blots. Data represent mean±SE (n=3), *p<0.001 versus control **p<0.01 compared to insulin-stimulated glucose uptake (panel A). *p<0.001 versus control ^#p<0.05 compared to insulin-stimulated glucose uptake in untreated cells (panel B).

cultured myotubes = experiment: Insulin-stimulated 2-[3H]-deoxyglucose uptake in cultured myotubes; assay type: cell-based; settings: peptide 10 mM and/or chromium 1 h, insulin 50 nM 10 min; 10 mM or 25 mM glucose overnight
Method: Myotubes were incubated with the peptide (10 mM) and/or chromium for 1 h and stimulated with insulin (50 nM) for 10 min, and 2-[^3H]-deoxyglucose uptake was assessed. Data represent mean counts per minute (cpm)/mg protein/30 min±SE (n=3). *p<0.01 compared to basal low glucose conditions. **p<0.01 compared to insulin-stimulated low glucose conditions. ***p<0.001 compared to high glucose conditions.

[3] = Insulin-stimulated glucose uptake in vivo, tail-vein peptide then intraperitoneal glucose; settings: peptide 5 μmol/kg alone or premixed with equimolar chromium via tail-vein; glucose 2 g/kg intraperitoneally
Method: The peptide (5 μmol/kg) either alone or premixed with equimolar concentrations of chromium were injected via tail-vein, immediately following which glucose (2 g/kg body weight) was administered intraperitoneally (*p<0.05, n=6-8).

| Langmuir parameter Bt [1] [mmol/g] | Langmuir parameter K [1] [L/mmol] | Co-operativity [1] | Kf (Hill plot binding of formation constant) [1] | n (Hill constant) [1] | chromium:oligopeptide ratio at the intersection point of the Langmuir isotherm (number of tightly binding ions) [1] | Cr:peptide binding ratio [2] | Substance | insulin-stimulated phosphorylation of Akt (p308-Akt) (Akt) | insulin-stimulated glucose uptake in cultured myotubes (cultured myotubes) | insulin-stimulated glucose uptake in vivo [3] |
| --- | --- | --- | --- | --- | --- | --- | --- | --- | --- | --- |
| -6.97 | -354 | Positively co-operative | 1.48 × 10^23 (mol/L)^−2 | 3.64 | approximately 2 | 2.0(±0.3) | EDGEECDCGE [synthetic acidic peptide with the same amino acid composition as bovine LMWCr] |  |  |  |
|  |  |  |  |  |  |  | EEEEGDD | improves insulin-stimulated phosphorylation of Akt | augments insulin-stimulated glucose uptake | augments insulin-stimulated glucose uptake in vivo |
| -0.73 | -151 | Positively co-operative | 1.92 × 10^20 (mol/L)^−4 | 3.82 | ~4 |  | [pGlu]EEEGDD |  |  |  |
| -62.9 | -9.94 | Positively co-operative | 1.01 × 10^11 (mol/L)^−2 | 1.85 | approximately 2 | 2.0±0.3 | DGEECDCGEE [synthetic acidic peptide with the same amino acid composition as bovine LMWCr] |  |  |  |
